Residues, ends and D or L forms follow the SMILES beside them. *: point of attachment. Cbz = O=C(OCc1ccccc1)*
Columns and labels:
glioma cells = details: upon adenoviral Nbk gene transfer with Ad-TreNbk-tTA; cited from earlier work
[1] = test system: mycNbk expression in DU145 prostate carcinoma cells; experiment: Conditional expression of mycNbk after Ad-TreNbk-tTA infection (Western blot); assay type: cell-based, human; details: 24 h after infection with Ad-TreNbk-tTA at 25 MOI
Description: For regulable expression of the pro-apoptotic gene Nbk in human cells, an adenoviral vector based on the adenovirus serotype 5 backbone was constructed. In this construct, the E3 region was replaced by the expression cassette for the tTA and the E1 region was replaced by an expression cassette for Nbk. To allow for convenient detection of the exogenous Nbk, a myc tag was inserted at the N-terminus of the human Nbk cDNA. Constitutive expression of the tTA was achieved by putting the tTA under the control of a CMV promoter. In the absence of tetracyclin or doxycyclin the tTA fusion protein binds via the TetR portion to the TRE in the PhCMV* promoter and activates via the VP16AD portion the transcription of the mycNbk. In the presence of tetra- or doxycyclin Nbk expression is repressed and switched off.
The recombinant adenovirus Ad-TreNbk-tTA (FIG. 7A) was employed for expression of the myc tagged Nbk (mycNbk) in a doxycyclin dependent manner. […] Apart from DU145, Nbk could be strongly expressed by the use of this adenoviral vector 24 h after transduction in a panel of other carcinomas or non-epithelial tumor cells, i.e. sarcoma, glioma and other mesenchymal cell types.
Apoptosis was determined by the use of a modified cell cycle analysis technique that relies on the measurement of cellular DNA content on the single cell level by flow cytometry. […]

Question: With `CC(C)C[C@@H](C=O)NC(=O)[C@H](CC(C)C)NC(=O)[C@H](CC(C)C)NC(=O)OCc1ccccc1` [MG132] (Cbz-Leu-Leu-Leu-aldehyde) as the compound, how does the Nbk expression levels (glioma cells) read?
Answer: enhanced Nbk expression levels

Question: What about the “sensitivity for Nbk-induced apoptosis” value (glioma cells) of the same compound?
Answer: increased sensitivity for Nbk-induced apoptosis

Question: Which “doxycyclin concentration at which Nbk expression is almost completely suppressed” value [1] does the source give for `C[C@H]1c2cccc(O)c2C(O)=C2C(=O)[C@]3(O)C(O)=C(C(N)=O)C(=O)[C@@H](N(C)C)[C@@H]3[C@@H](O)[C@@H]21` [doxycyclin] here?
Answer: ≥ 10 ng/mL
